# Values of other authors as cited in US20180295833A1, “METHOD FOR SUPPRESSION OF OR PROTECTION FROM ISCHEMIA/REPERFUSION INJURY OF ORGANS FOR TRANSPLANTATION” (MiZ Company Limited, priority 2017, published 2018).
# Settings: normal temperature and normal pressure of 15° C. to 25° C. and 1 atm
structure (smiles),measurement,value
[HH] [molecular hydrogen],saturation concentration of molecular hydrogen,1.6 ppm
